Source: patent US11236380B2, “Methods for predicting kinase inhibitor resistance” (Research Development Foundation, priority 2017, dated 2022)

Tests used:
[1] = system: ABL kinase error-prone mutant library; assay: ABL error-prone library screening by FACS in presence of inhibitor; type: cell-based, human; details: inhibitor-treated cultures (25 μM)
Procedure: 5×10^7 cells were washed with TBS+BSA then stained with anti-His6-FITC and anti-pY-PE for 30 minutes at 4° C. Cells were washed three times to remove unbound antibody. Wild-type ABL with and without inhibitor was used to determine the location of the sorting gates. PE+/FITC+ cells were sorted and re-sorted, then transferred to SD-UT medium for growth at 30° C. until dense, 1-2 days depending on number of cells collected (FIG. 1B).

[2] = system: BTK (217-655) error-prone mutant library; assay: BTK error-prone library screening by FACS in presence of inhibitor; type: cell-based, human
Procedure: A12 polymerase, an error-prone variant of KOD polymerase, was used for amplification to generate a pool of mutants. Vector was prepared by digestion with XhoI and XbaI. PCR product and digested vector were gel extracted and drop dialyzed in ddH2O on VSWP membranes for one hour. […] Library size was estimated by colony counts from dilution series of transformed cells plated on SD-UT agar plus 100 μg/mL G418. Sanger sequencing was carried out on 15 randomly selected clones, as well as high throughput sequencing (described below) on an aliquot of the entire sample.
3×10^8 cells were washed with TBS+BSA for each library and then stained with anti-His6-FITC and anti-pY-APC for 30 minutes at 4° C. Cells were washed three times to remove unbound antibody.

Cc1ccc(C(=O)Nc2ccc(CN3CCN(C)CC3)c(C(F)(F)F)c2)cc1C#Cc1cnc2cccnn12 [Ponatinib]
fraction of PE-positive cells ([1]; pre-sort 4 pool): 57.9%
fraction of PE-positive cells ([1]; unsorted pool): 0.31%

CC#CC(=O)N1CCC[C@H]1c1nc(-c2ccc(C(=O)Nc3ccccn3)cc2)c2c(N)nccn12 [Acalabrutinib]
fraction of APC-positive cells ([2]; 1000 μM Acalabrutinib treated cultures, pre-sort round 3 pool): 23.8%
fraction of APC-positive cells ([2]; 1000 μM Acalabrutinib treated cultures, unsorted pool): 1.63%

C=CC(=O)N1CCC[C@@H](n2nc(-c3ccc(Oc4ccccc4)cc3)c3c(N)ncnc32)C1 [Ibrutinib]
fraction of APC-positive cells ([2]; 400 nM Ibrutinib-treated cultures, pre-sort round 3): 40.60%
fraction of APC-positive cells ([2]; 400 nM Ibrutinib-treated cultures, unsorted pool): 0.7%
